From PMC6996304, “Tumor gene therapy by systemic delivery of plasmid DNA with cell‐penetrating peptides” (FASEB bioAdvances, 2018)
Entries after “also recorded” stand apart in the source; their conditions may differ.

Tests used:
[1] = test system: BALB/c mice bearing subcutaneous Neuro2a tumors; assay: Reporter gene delivery in vivo (CPP/pLuc2, luciferase in tissues); set-up: species or system mouse; conditions: for tumor specificity of reporter gene induction (luciferase levels in tissues): one iv dose of CPP/pLuc2 at CR4, plasmid 0.8 mg/kg, PEGylation rate 50%, tissues 24 h after injection
Method: (§1) For in vivo studies, the plasmid dose was 0.8 mg/kg per animal; the pDNA was mixed with the CPP at CR 4 in MQ water, keeping the final complex volume at 100 μL. After 40‐minute incubation, 100 μL of 10% glucose was added to the complexes and injected immediately via tail vein. The luciferase encoding plasmid used in reporter gene experiments in vivo was p‐CMV‐Luc2, marked as pLuc2 in the text, which is optimized for in vivo use.
(§2) If not stated otherwise, the PEGylation rate of peptides in the CPP/pDNA complexes was 50% in all in vivo experiments.
(§3) Mouse Neuro2a and HT1080 tumor xenografts were induced by resuspending 1 × 10^6 cells in 100 μL volume of ice‐cold un‐supplemented DMEM and implanting the cell suspension subcutaneously to the right flank of the mouse (Neuro2a: 4‐ to 6‐week‐old BALB/c; HT1080: Hsd:Athymic Nude‐Foxn1nu female, 4‐6 weeks old, Harlan, UK). The 4T1 orthotopic tumors were induced by injecting 5 × 10^4 cells in 50 μL of ice‐cold un‐supplemented RPMI into the fourth mammary fat pad of 4‐ to 8‐week‐old female BALB/c mice.
Twenty‐four hours after the intravenous administration of CPP/pLuc2 complexes, the mice bearing Neuro2a tumors were sacrificed by cervical dislocation and tissues were harvested and snap‐frozen on dry ice. The tissues were homogenized using Precellys®24‐Dual homogenization system (Bertin Technologies, France) and lyzed with 1 × Promega lysis buffer (Promega). Luminescence was analyzed as described in in vitro transfection methods section.

sc HT1080 tumors = assay: Tumor growth reduction study, HT1080 fibrosarcoma model; format: in vivo, mouse; conditions: nude athymic mice, sc HT1080, CPP/pshVEGF CR4, 0.8 mg/kg every other day, three doses (two iv, third ip), n = 10, compared to pshVEGF alone; Figure 3A
Method: as §1, §2, §3
(§4) Before treatment, the mice were assigned into six groups of 10. CPP/pshVEGF treatment for HT1080 tumor‐bearing animals was started at the first appearance of tumor growth (tumor size of approximately 100 mm^3). […] The tumor sizes were measured with calipers three times a week. […]

[2] = molecular target: active human recombinant MMP-2 enzyme (Homo sapiens, UniProt P08253)
Chain of active human recombinant MMP-2 enzyme (P08253 110-660): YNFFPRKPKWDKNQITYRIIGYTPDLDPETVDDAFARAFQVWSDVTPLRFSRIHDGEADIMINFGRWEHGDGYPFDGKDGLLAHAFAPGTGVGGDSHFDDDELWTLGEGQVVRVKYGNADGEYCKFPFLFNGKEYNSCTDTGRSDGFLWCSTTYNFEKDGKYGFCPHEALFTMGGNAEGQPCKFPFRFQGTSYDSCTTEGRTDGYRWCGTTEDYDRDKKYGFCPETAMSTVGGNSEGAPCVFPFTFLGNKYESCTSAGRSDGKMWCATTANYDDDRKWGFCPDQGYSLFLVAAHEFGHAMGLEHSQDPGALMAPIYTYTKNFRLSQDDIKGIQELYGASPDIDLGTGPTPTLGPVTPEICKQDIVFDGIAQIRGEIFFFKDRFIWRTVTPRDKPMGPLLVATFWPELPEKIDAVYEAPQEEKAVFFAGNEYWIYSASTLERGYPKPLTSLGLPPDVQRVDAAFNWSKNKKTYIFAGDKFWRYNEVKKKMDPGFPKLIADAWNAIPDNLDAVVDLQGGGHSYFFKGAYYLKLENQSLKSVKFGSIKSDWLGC
Method: Cleavage assay of MMP-2 cleavable CPPs that contain iRGD. The peptides were incubated with
The mixture was then analyzed with RP-UPLC (C18 reverse phase column, eluted with 20-
80% acetonitrile in water, 0.1% TFA). […] Enzyme digestion
products were confirmed by MALDI-ToF mass spectrometry.
Peptide cleavability by MMP-2
To assess the cleavability of iRGD-modified CPPs by MMP-2, the peptides were incubated
with recombinant MMP-2 (0.1 mg/ml, Calbiochem, Germany) in MQ water for 40 minutes at
37°C and analyzed with UPLC.

Neuro2a cells [3] = assay: In vitro transfection of CPP/pGL3 complexes, luciferase activity, with and without MMP-2 treatment; format: cell-based, mouse; conditions: CPP/pGL3 complexes CR3 incubated with MMP-2 (3.8 ng/μL) 37 °C 40 min before transfection, 24 h, Figure 1B
Method: CPP/pDNA nanoparticles for cell culture assays were prepared by mixing plasmid DNA (0.5 μg per well of a 24‐well plate) with CPPs, at CPP/pDNA charge ratio 3 (CR3) in MQ water with final volume of 105 μL, followed by a 40‐minute incubation at room temperature. pGL3 Control (Promega, Stockholm, Sweden) was used as the luciferase encoding plasmid since it is best suitable for in vitro use.
Twenty‐four hours before the experiment 3 × 10^4 Neuro2a cells were seeded onto 24‐well plates. Peptide/pDNA complexes at CR3 were prepared as described above. The transfection mixture was added to cells containing full media, and it made up 1/10 of the total cell medium volume during the time of transfection. Lipofectamine™ 2000 (Invitrogen, Carlsbad, CA) was used according to the manufacturer's protocol and added to the cells in serum‐containing medium. After 4‐hour incubation with the complexes, an additional 1 mL of fresh medium was added to the cells and incubated for an additional 20 hours. Thereafter, the media was removed, cells were lyzed with 100 μL 0.1% Triton X‐100 in PBS for 15 minutes at 4°C. Luciferase activity was measured using Promega's luciferase assay (Luciferase Assay System, Promega) according to the manufacturer's protocol on GLOMAX™ 96 microplate luminometer (Promega) and normalized to protein content, which was measured with the BioRad Protein Assay (Hercules, CA) according to the manufacturer's protocol.
To study the effect of MMP‐2 cleavage on transfection efficiency, active recombinant MMP‐2 enzyme (0.1 mg/mL, Calbiochem, Germany) was added to the CPP/pDNA complexes in MQ (final MMP‐2 concentration 3.8 ng/μL), and incubated at 37°C for 40 minutes prior transfection.

orthotopic 4T1 tumors = assay: Tumor growth reduction study, orthotopic 4T1 breast tumor model; format: in vivo, mouse; conditions: BALB/c mice, orthotopic 4T1, treatment from 1 day after implantation, CPP/pshVEGF CR4, 0.8 mg/kg every other day, three doses, n = 10; Figure 3B
Method: as §1, §2, §3, §4

[4] = Heparin displacement assay (PicoGreen); format: physicochemical; conditions: CPP/pLuc2 CR3, 0.1 μg pDNA per well, MQ water, heparin 30 min 37 °C, 100% = naked pDNA, Figure 2B
Method: Accessibility of pDNA in complexes formed between pDNA and CPPs was assessed by Quant‐iT™ PicoGreen® (Thermo Fisher Scientific) assay in mQ water. CPP/pLuc2 nanoparticles at CR3 were prepared as described previously, and transferred to black 96 well plates (0.1 μg of pDNA per well). Heparin solution was added into the wells and incubated at 37°C for 30 minutes. For detection, PicoGreen® was added to the wells, and incubated for 20 minutes. Fluorescence was measured by fluorimeter (λex = 492 nm, λem = 535 nm) (SynergyMx, BioTek).

Neuro2a cells [5] = conditions: CPP/pLuc2 CR3, 0.1 μg pDNA, 4 h at 37 °C in 50% FBS (MQ for controls), then transfection of Neuro2a cells, luciferase read-out; Figure 2A
Method: The stability of the CPP/pDNA nanoparticles to degradation and dissociation by components found in serum was assessed by reporter gene expression in cells after 4 hours incubation of CPP/pLuc2 complexes with 50% FBS. Complexes were formed as described previously, with 0.1 μg pDNA (CR 3), and incubated at room temperature for 40 minutes. After this, FBS (or MQ for controls) was added to the complexes, and the mixture incubated at 37°C for 4 hours (final FBS concentration 50%). For transfection, 1 × 10^4 Neuro2a cells were seeded to transparent 96‐well plates in supplemented DMEM media 24 hours before experiment. On the day of the experiment, the cells were transfected and luciferase expression analyzed as described in previous section (In vitro transfection).

tumors = conditions: systemic reporter gene plasmid delivery; cited from earlier work
Excerpt: In a previous paper MMP‐activatable CPPs PepFect144 (PF144), PepFect145 (PF145), and PepFect146 (PF146) were designed, where the cell penetration ability of the CPPs was reversibly masked by attaching a PEG molecule to the C‐terminus of the peptides via an MMP‐2/‐9 cleavable linker. […] Although plasmid DNA has been successfully used in combination with small molecule therapeutics,31, 32 achieving a clinical effect by plasmid delivery ...

Substance	tumor specificity of reporter gene induction (luciferase levels in tissues) ([1]; Figure 1C)	effect on tumor growth, HT1080 model (sc HT1080 tumors)	transfection efficiency after incubation with MMP-2 enzyme (enzyme-dependent activation) (Neuro2a cells [3])	effect on tumor growth, 4T1 model (orthotopic 4T1 tumors)	sensitivity of CPP/pDNA nanoparticles to serum treatment (transfection efficiency before and after FBS) (Neuro2a cells [5])	tissue/tumor specificity of plasmid DNA delivery in vivo (tumors)	further results
C*RGDKGPDC*‐NH2 (disulfide) [iRGD, tumor‐homing peptide, αvβ3 integrin targeting ligand, reference compound]							luciferase levels in tissues on coadministration of standalone iRGD with CPP/pLuc2 nanoparticles ([1]; iRGD coadministered (molar amount equal to that of PF14) with PF144 or PF145 nanoparticles, iv, CR4, 0.8 mg/kg plasmid, 24 h, Figure 1C): high luciferase levels in spleen; also recorded: high reporter gene expression in the spleen
Stearyl‐AGYLLGKLLOOLAAAALOOLL‐X‐LALGPG‐PEG1000‐C*RGDKGPDC*‐NH2 (disulfide) [PF148‐iRGD]	unable to induce luciferase expression in any tissue	no effect on tumor size	no enzyme‐dependent activation	no effect on tumor size			cleavability of the MMP-2 sensitive linker by the MMP-2 enzyme [2]: resistant to MMP‐2 degradation
Stearyl‐AGYLLGKLLOOLAAAALOOLL‐X‐PLGLAG‐PEG600‐C*RGDKGPDC*‐NH2 (disulfide) [PF144‐iRGD, iRGD‐functionalized PF144]	decreased the tumor specificity; also recorded: reduction in tumor specificity		fully restored to the level of PF14				
Stearyl‐AGYLLGKLLOOLAAAALOOLL‐X‐PLGLAG‐PEG600‐NH2 [PF144]					highest stability to serum and heparin treatment out of all the PEGylated peptides	efficient tumor specificity; also recorded: successful in mediating tumor‐specific gene delivery	resistance of pDNA in complexes to heparin displacement (relative PicoGreen fluorescence) [4]: significantly more resistant to heparin treatment than other PEGylated CPPs tested
Stearyl‐AGYLLGKLLOOLAAAALOOLL‐X‐PLGLAG‐PEG1000‐C*RGDKGPDC*‐NH2 (disulfide) [PF145‐iRGD, iRGD‐functionalized PF145]	preserved its tumor specificity; also recorded: minimal luciferase induction in healthy tissues	did not translate into efficient tumor treatment	fully restored to the level of PF14	performs worse than PF144			reporter gene induction at different PEGylation rates ([1]; PF145-iRGD/pLuc2 CR4, 20 µg, PEGylation rates 40%, 50%, 70% (rest PF14), iv, 24 h, N=3 per group, Figure S2): 50% being the most effective of the three
Stearyl‐AGYLLGKLLOOLAAAALOOLL‐X‐PLGLAG‐PEG1000‐NH2 [PF145]					lowest transfection efficiency after serum treatment	successful in mediating tumor‐specific gene delivery	
